Results published in paper PMC5160999 (ChemMedChem, 2016).

How the values were obtained:
B. subtilis = assay: Synergy/antagonism two-drug combination assay, B. subtilis; format: cell-based
S. aureus = assay: Synergy/antagonism two-drug combination assay, S. aureus; format: cell-based
A. baumannii = assay: Synergy/antagonism two-drug combination assay, A. baumannii; format: cell-based
P. aeruginosa = assay: Synergy/antagonism two-drug combination assay, P. aeruginosa; format: cell-based
E. coli = assay: Synergy/antagonism two-drug combination assay, E. coli; format: cell-based
K. pneumoniae = assay: Synergy/antagonism two-drug combination assay, K. pneumoniae; format: cell-based
EcUPPP = EcUPPP (Escherichia coli, UniProt P60932); assay: EcUPPP inhibition, malachite-green assay; format: biochemical, E. coli; details: read-out: IC50 EuUPPP
EcUPPP, sequence (P60932 whole entry): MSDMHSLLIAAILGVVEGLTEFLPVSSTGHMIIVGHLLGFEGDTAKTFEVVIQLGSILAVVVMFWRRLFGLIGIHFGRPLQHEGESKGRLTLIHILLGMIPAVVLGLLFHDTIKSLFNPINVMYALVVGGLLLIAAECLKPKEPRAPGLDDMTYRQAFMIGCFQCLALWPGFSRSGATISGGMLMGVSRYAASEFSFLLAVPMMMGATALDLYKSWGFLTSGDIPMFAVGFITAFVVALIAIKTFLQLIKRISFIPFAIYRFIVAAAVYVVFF

CC1(C)S[C@@H]2[C@H](NC(=O)[C@H](N)c3ccccc3)C(=O)N2[C@H]1C(=O)O [Ampicillin]
FIC (B. subtilis; B. subtilis, combination of 32 with Ampicillin): 0.18 ± 0.041
MIC (B. subtilis; Bacillus subtilis): 0.5 µg/mL
FIC (S. aureus; S. aureus, combination of 32 with Ampicillin): 0.30 ± 0.095
MIC (S. aureus; Staphylococcus aureus): 0.5 µg/mL

CC1(C)S[C@@H]2[C@H](NC(=O)C(C(=O)O)c3ccccc3)C(=O)N2[C@H]1C(=O)O (stereo partly drawn) [Carbenicillin]
FIC (B. subtilis; B. subtilis, combination of 32 with Carbenicillin): 0.25 ± 0.043
MIC (B. subtilis; Bacillus subtilis): 5 µg/mL
FIC (S. aureus; S. aureus, combination of 32 with Carbenicillin): 0.27 ± 0.015
MIC (S. aureus; Staphylococcus aureus): 15 µg/mL

CO/N=C(\C(=O)N[C@@H]1C(=O)N2C(C(=O)O)=C(COC(C)=O)CS[C@H]12)c1csc(N)n1 [Cefotaxime]
FIC (B. subtilis; B. subtilis, combination of 32 with Cefotaxime): 0.30 ± 0.044
MIC (B. subtilis; Bacillus subtilis): 2.5 µg/mL
FIC (S. aureus; S. aureus, combination of 32 with Cefotaxime): 0.21 ± 0.048
MIC (S. aureus; Staphylococcus aureus): 2 µg/mL

O=C(N[C@H](CO)[C@H](O)c1ccc([N+](=O)[O-])cc1)C(Cl)Cl [Chloramphenicol]
FIC (B. subtilis; B. subtilis, combination of 32 with Chloramphenicol): 0.55 ± 0.13
MIC (B. subtilis; Bacillus subtilis): 0.5 µg/mL
FIC (S. aureus; S. aureus, combination of 32 with Chloramphenicol): 0.71 ± 0.11
MIC (S. aureus; Staphylococcus aureus): 5 µg/mL

C[C@@H]1O[C@@H]1P(=O)(O)O [Fosfomycin]
FIC (B. subtilis; B. subtilis, combination of 32 with Fosfomycin): 0.21 ± 0.025
MIC (B. subtilis; Bacillus subtilis): 200 µg/mL
FIC (S. aureus; S. aureus, combination of 32 with Fosfomycin): 0.13 ± 0.022
MIC (S. aureus; Staphylococcus aureus): 200 µg/mL

NC[C@H]1O[C@H](O[C@H]2[C@H](O)[C@@H](O[C@H]3O[C@H](CO)[C@@H](O)[C@H](N)[C@H]3O)[C@H](N)C[C@@H]2N)[C@H](O)[C@@H](O)[C@@H]1O [Kanamycin]
FIC (B. subtilis; B. subtilis, combination of 32 with Kanamycin): 0.61 ± 0.097
MIC (B. subtilis; B. subtilis, drug acting alone): 1.5 µg/mL
FIC (S. aureus; S. aureus, combination of 32 with Kanamycin): 0.81 ± 0.17
MIC (S. aureus; S. aureus, drug acting alone): 1.5 µg/mL

CN[C@@H]1[C@H](O)[C@H](NC)[C@H]2O[C@@]3(O)C(=O)C[C@@H](C)O[C@H]3O[C@@H]2[C@H]1O [Spectinomycin]
FIC (S. aureus; S. aureus, combination of 32 with Spectinomycin): 0.45 ± 0.091
MIC (S. aureus; Staphylococcus aureus): 40 µg/mL

Cc1cc(NS(=O)(=O)c2ccc(N)cc2)no1 [Sulfamethoxazole]
FIC (B. subtilis; B. subtilis, combination of 32 with Sulfamethoxazole): 0.87 ± 0.23
MIC (B. subtilis; Bacillus subtilis): 200 µg/mL
FIC (S. aureus; S. aureus, combination of 32 with Sulfamethoxazole): 0.75 ± 0.20
MIC (S. aureus; Staphylococcus aureus): 200 µg/mL

CN(C)[C@@H]1C(O)=C(C(N)=O)C(=O)[C@@]2(O)C(O)=C3C(=O)c4c(O)cccc4[C@@](C)(O)[C@H]3C[C@@H]12 [Tetracycline]
FIC (B. subtilis; B. subtilis, combination of 32 with Tetracycline): 0.82 ± 0.21
MIC (B. subtilis; Bacillus subtilis): 5 µg/mL
FIC (S. aureus; S. aureus, combination of 32 with Tetracycline): 0.83 ± 0.38
MIC (S. aureus; Staphylococcus aureus): 0.5 µg/mL

COc1cc(Cc2cnc(N)nc2N)cc(OC)c1OC [Trimethoprim]
FIC (B. subtilis; B. subtilis, combination of 32 with Trimethoprim): 0.77 ± 0.18
MIC (B. subtilis; Bacillus subtilis): 0.5 µg/mL
FIC (S. aureus; S. aureus, combination of 32 with Trimethoprim): 0.69 ± 0.32
MIC (S. aureus; Staphylococcus aureus): 15 µg/mL

CN[C@H](CC(C)C)C(=O)N[C@H]1C(=O)N[C@@H](CC(N)=O)C(=O)N[C@H]2C(=O)N[C@H]3C(=O)N[C@H](C(=O)N[C@H](C(=O)O)c4cc(O)cc(O)c4-c4cc3ccc4O)[C@H](O)c3ccc(c(Cl)c3)Oc3cc2cc(c3O[C@@H]2O[C@H](CO)[C@@H](O)[C@H](O)[C@H]2O[C@H]2C[C@](C)(N)[C@H](O)[C@H](C)O2)Oc2ccc(cc2Cl)[C@H]1O [Vancomycin]
FIC (B. subtilis; B. subtilis, combination of 32 with Vancomycin): 0.33 ± 0.058
MIC (B. subtilis; Bacillus subtilis): 0.5 µg/mL
FIC (S. aureus; S. aureus, combination of 32 with Vancomycin): 0.19 ± 0.019
MIC (S. aureus; Staphylococcus aureus): 1.5 µg/mL

O=CN(O)CCCP(=O)(O)O [fosmidomycin]
FIC (A. baumannii; A. baumannii, combination of 11 with fosmidomycin): 0.27 ± 0.057
MIC (A. baumannii; Acinetobacter baumannii): 5 µg/mL
FIC (B. subtilis; B. subtilis, combination of 32 with Fosmidomycin): 0.25 ± 0.043
MIC (B. subtilis; Bacillus subtilis): 5 µg/mL
FIC (P. aeruginosa; P. aeruginosa, combination of 11 with fosmidomycin): 0.18 ± 0.066
MIC (P. aeruginosa; Pseudomonas aeruginosa): 3 µg/mL
FIC (E. coli; E. coli, combination of 11 with fosmidomycin): 0.14 ± 0.13
MIC (E. coli; Escherichia coli): 5 µg/mL
FIC (K. pneumoniae; K. pneumoniae, combination of 11 with fosmidomycin): 0.12 ± 0.014
MIC (K. pneumoniae; Klebsiella pneumoniae): 5 µg/mL

Bacitracin
FIC (B. subtilis; B. subtilis, combination of 32 with Bacitracin): 0.12 ± 0.028
MIC (B. subtilis; B. subtilis, drug acting alone): 200 µg/mL
FIC (S. aureus; S. aureus, combination of 32 with Bacitracin): 0.21 ± 0.039
MIC (S. aureus; S. aureus, drug acting alone): 200 µg/mL
IC50 (EcUPPP): 32 µM
